Drawing on PMC10579715 (Plant Biotechnology Journal, 2023), this text covers Km for one molecule.

This assay has as its system LmUGT73P1. The experiment in a line: LC-QTOF-MS/MS rhamnosyltransferase assay, Michaelis-Menten plot. Format: biochemical, Lonicera macranthoides. The note with it: 10 mM UDP-Rha, 50 mM Tris-HCl pH 7.5, 37 °C, 20 min.

On to `CC1(C)CC[C@]2(C(=O)O)CC[C@]3(C)C(=CC[C@@H]4[C@@]5(C)CC[C@H](O[C@@H]6OC[C@H](O)[C@H](O)[C@H]6O)[C@@](C)(CO)[C@@H]5CC[C@]43C)[C@@H]2C1` [cauloside A], for which the Michaelis constant (Km) was 33 µM.

As usually defined, the Km is the concentration of substrate that gives half-maximal velocity.
